In publication PMC12373499 (Nature Metabolism, 2025):
Where a SMILES comes first, the peptide text is derived from it. [ ]: non-standard residue; d: D form. The star is where a group is joined. X1 = CN1C(=CC=CC=CC2=[N+](CCCCCC(=O)NCCN3C(=O)CC(*)C3=O)c3ccccc3C2(C)C)C(C)(C)c2ccccc21; Aib = CC(C)(N)C(=O)O

System: MIN6-CB4 β cells
Assay: MIN6-CB4 cell fluorescent probe labelling, colocalization
Assay type: cell-based
Protocol: MIN6-CB4 cells were generated and phenotyped, as previously described. Cells were grown to 70% confluency in MIN6 media (DMEM High Glucose supplemented with 15% FBS, 71 μM 2-mercaptoethanol, 2 mM glutamine, 100 units ml^−1 penicillin, 100 μg ml^−1 streptomycin). Cells were then seeded in 100 μl MIN6 media per well, on a glass-bottomed 96-well imaging plate previously coated with poly-L-lysine 0.01%.
Probe labelling was analysed using corrected total cell fluorescence, which is integrated density − (area of selected cell × mean fluorescence of background readings)[52],[53]. Colocalization was determined using Manders’ coefficient, which calculates the proportion of pixels in one channel that also show intensity from both channels. Full width at half maximum was used to analyse labelling patterns at the membrane versus cytoplasm. All analyses were performed in ImageJ (NIH), with brightness and contrast linearly adjusted across the entire image for presentation purposes and applied equally between all states under examination.

[1] = daLUXendin660 (tirz Cy5 500nM) vs LUXendin551 (100nM), image 2022.05.06 1-1
[2] = daLUXendin660 (tirz Cy5 500nM) vs LUXendin551 (100nM), image 2022.05.06 1-2
[3] = daLUXendin660 (tirz Cy5 500nM) vs LUXendin551 (100nM), image 2022.05.06 1-3
[4] = daLUXendin660 (tirz Cy5 500nM) vs LUXendin551 (100nM), image 2022.05.06 1-4
[5] = daLUXendin660 (tirz Cy5 500nM) vs LUXendin551 (100nM), image 2022.05.06 2-1
[6] = daLUXendin660 (tirz Cy5 500nM) vs LUXendin551 (100nM), image 2022.05.06 2-2
[7] = daLUXendin660 (tirz Cy5 500nM) vs LUXendin551 (100nM), image 2022.05.06 2-3
[8] = daLUXendin660 (tirz Cy5 500nM) vs LUXendin551 (100nM), image 2022.05.06 2-4
[9] = daLUXendin660 (tirz Cy5 500nM) vs LUXendin551 (100nM), image 2022.05.12 1-1
[10] = daLUXendin660 (tirz Cy5 500nM) vs LUXendin551 (100nM), image 2022.05.12 1-2
[11] = daLUXendin660 (tirz Cy5 500nM) vs LUXendin551 (100nM), image 2022.05.12 1-3
[12] = daLUXendin660 (tirz Cy5 500nM) vs LUXendin551 (100nM), image 2022.05.12 1-4
[13] = daLUXendin660 (tirz Cy5 500nM) vs LUXendin551 (100nM), image 2022.05.12 2-1
[14] = daLUXendin660 (tirz Cy5 500nM) vs LUXendin551 (100nM), image 2022.05.12 2-2
[15] = daLUXendin660 (tirz Cy5 500nM) vs LUXendin551 (100nM), image 2022.05.12 2-3
[16] = daLUXendin660 (tirz Cy5 500nM) vs LUXendin551 (100nM), image 2022.05.12 2-4
[17] = daLUXendin660 (tirz Cy5 500nM) vs sGIP549 (JB2228 100nM), image 2022.05.06 1-1
[18] = daLUXendin660 (tirz Cy5 500nM) vs sGIP549 (JB2228 100nM), image 2022.05.06 1-2
[19] = daLUXendin660 (tirz Cy5 500nM) vs sGIP549 (JB2228 100nM), image 2022.05.06 1-3
[20] = daLUXendin660 (tirz Cy5 500nM) vs sGIP549 (JB2228 100nM), image 2022.05.06 1-4
[21] = daLUXendin660 (tirz Cy5 500nM) vs sGIP549 (JB2228 100nM), image 2022.05.06 2-1
[22] = daLUXendin660 (tirz Cy5 500nM) vs sGIP549 (JB2228 100nM), image 2022.05.06 2-2
[23] = daLUXendin660 (tirz Cy5 500nM) vs sGIP549 (JB2228 100nM), image 2022.05.06 2-3
[24] = daLUXendin660 (tirz Cy5 500nM) vs sGIP549 (JB2228 100nM), image 2022.05.06 2-4
[25] = daLUXendin660 (tirz cy5 500nM) vs sGIP549 (JB2228 100nM), image 2022.05.12 1-1
[26] = daLUXendin660 (tirz cy5 500nM) vs sGIP549 (JB2228 100nM), image 2022.05.12 1-2
[27] = daLUXendin660 (tirz cy5 500nM) vs sGIP549 (JB2228 100nM), image 2022.05.12 1-3
[28] = daLUXendin660 (tirz cy5 500nM) vs sGIP549 (JB2228 100nM), image 2022.05.12 1-4
[29] = daLUXendin660 (tirz cy5 500nM) vs sGIP549 (JB2228 100nM), image 2022.05.12 2-1
[30] = daLUXendin660 (tirz cy5 500nM) vs sGIP549 (JB2228 100nM), image 2022.05.12 2-2
[31] = daLUXendin660 (tirz cy5 500nM) vs sGIP549 (JB2228 100nM), image 2022.05.12 2-3
[32] = daLUXendin660 (tirz cy5 500nM) vs sGIP549 (JB2228 100nM), image 2022.05.12 2-4

CC[C@H](C)[C@H](NC(=O)[C@H](CC(C)C)NC(=O)[C@H](Cc1c[nH]c2ccccc12)NC(=O)[C@H](CCC(N)=O)NC(=O)[C@@H](NC(=O)[C@H](Cc1ccccc1)NC(=O)[C@H](C)NC(=O)[C@H](CCCCN)NC(=O)[C@H](CCC(N)=O)NC(=O)[C@H](C)NC(=O)[C@@H](NC(=O)[C@H](CCCCN)NC(=O)[C@H](CC(=O)O)NC(=O)[C@H](CC(C)C)NC(=O)C(C)(C)NC(=O)[C@@H](NC(=O)[C@H](CO)NC(=O)[C@H](Cc1ccc(O)cc1)NC(=O)[C@H](CC(=O)O)NC(=O)[C@H](CO)NC(=O)[C@@H](NC(=O)[C@H](Cc1ccccc1)NC(=O)[C@@H](NC(=O)CNC(=O)[C@H](CCC(=O)O)NC(=O)C(C)(C)NC(=O)[C@@H](N)Cc1ccc(O)cc1)[C@@H](C)O)[C@@H](C)O)[C@@H](C)CC)[C@@H](C)CC)C(C)C)C(=O)N[C@@H](C)C(=O)NCC(=O)NCC(=O)N1CCC[C@H]1C(=O)N[C@@H](CO)C(=O)N[C@@H](CO)C(=O)NCC(=O)N[C@@H](C)C(=O)N1CCC[C@H]1C(=O)N1CCC[C@H]1C(=O)N1CCC[C@H]1C(=O)N[C@@H](CSC1CC(=O)N(CCNC(=O)CCCCC[N+]2=C(C=CC=CC=C3N(C)c4ccccc4C3(C)C)C(C)(C)c3ccccc32)C1=O)C(N)=O (stereo partly shown) [daLUXendin660] (H-Y[Aib]EGTFTSDYSI[Aib]LDKIAQKAFVQWLIAGGPSSGAPPPC(X1)-NH2)
Manders' R [1]: 0.82
Pearson's [1]: 0.663
Manders' R [2]: 0.763
Pearson's [2]: 0.555
Manders' R [3]: 0.866
Pearson's [3]: 0.756
Manders' R [4]: 0.82
Pearson's [4]: 0.61
Manders' R [5]: 0.849
Pearson's [5]: 0.778
Manders' R [6]: 0.803
Pearson's [6]: 0.595
Manders' R [7]: 0.811
Pearson's [7]: 0.656
Manders' R [8]: 0.83
Pearson's [8]: 0.66
Manders' R [9]: 0.861
Pearson's [9]: 0.826
Manders' R [10]: 0.847
Pearson's [10]: 0.812
Manders' R [11]: 0.799
Pearson's [11]: 0.723
Manders' R [12]: 0.766
Pearson's [12]: 0.713
Manders' R [13]: 0.8
Pearson's [13]: 0.745
Manders' R [14]: 0.809
Pearson's [14]: 0.769
Manders' R [15]: 0.825
Pearson's [15]: 0.795
Manders' R [16]: 0.894
Pearson's [16]: 0.914
Manders' R [17]: 0.9
Pearson's [17]: 0.838
Manders' R [18]: 0.901
Pearson's [18]: 0.809
Manders' R [19]: 0.886
Pearson's [19]: 0.756
Manders' R [20]: 0.894
Pearson's [20]: 0.818
Manders' R [21]: 0.899
Pearson's [21]: 0.824
Manders' R [22]: 0.894
Pearson's [22]: 0.796
Manders' R [23]: 0.901
Pearson's [23]: 0.822
Manders' R [24]: 0.878
Pearson's [24]: 0.769
Manders' R [25]: 0.862
Pearson's [25]: 0.834
Manders' R [26]: 0.735
Pearson's [26]: 0.645
Manders' R [27]: 0.775
Pearson's [27]: 0.722
Manders' R [28]: 0.833
Pearson's [28]: 0.821
Manders' R [29]: 0.823
Pearson's [29]: 0.764
Manders' R [30]: 0.748
Pearson's [30]: 0.736
Manders' R [31]: 0.968
Pearson's [31]: 0.975
Manders' R [32]: 0.784
Pearson's [32]: 0.683
